Experimental data published in US20240199546A1, “INHIBITORS OF SOLUTE CARRIER FAMILY 6A MEMBER 19 (SLC6A19) AND METHODS OF USE THEREOF” (Maze Therapeutics, Inc., priority 2022, published 2024).

target: T1, human SLC6A19 and TMEM27 (Homo sapiens, UniProt Q695T7); assay: Radiolabelled (3H) leucine uptake in CHO cells with doxycycline-inducible expression of human SLC6A19 and TMEM27 (Example B-1); assay type: cell-based; conditions: CHO cells with doxycycline-inducible expression of human SLC6A19 and TMEM27, read-out: SLC6A19_Radioligand Uptake Assay IC50
T1 construct: expressed in transfected cells
T1 sequence (Q695T7 1-634): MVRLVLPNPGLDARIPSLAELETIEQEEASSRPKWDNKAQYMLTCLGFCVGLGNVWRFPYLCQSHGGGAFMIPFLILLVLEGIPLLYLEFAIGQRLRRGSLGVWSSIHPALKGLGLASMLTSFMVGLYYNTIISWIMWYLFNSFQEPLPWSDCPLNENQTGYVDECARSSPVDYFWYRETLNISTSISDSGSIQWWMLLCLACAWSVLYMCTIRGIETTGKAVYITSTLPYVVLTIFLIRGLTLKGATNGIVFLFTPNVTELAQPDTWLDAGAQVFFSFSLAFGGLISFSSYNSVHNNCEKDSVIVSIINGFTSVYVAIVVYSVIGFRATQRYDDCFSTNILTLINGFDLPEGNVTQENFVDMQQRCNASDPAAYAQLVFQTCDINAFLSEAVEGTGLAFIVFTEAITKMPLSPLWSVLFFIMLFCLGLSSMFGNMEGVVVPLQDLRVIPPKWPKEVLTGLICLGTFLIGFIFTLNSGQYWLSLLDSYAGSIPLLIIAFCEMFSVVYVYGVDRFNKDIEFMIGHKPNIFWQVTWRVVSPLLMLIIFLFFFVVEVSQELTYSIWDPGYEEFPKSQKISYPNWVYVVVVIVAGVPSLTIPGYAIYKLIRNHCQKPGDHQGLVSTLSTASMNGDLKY
T1 sequence (Q9HBJ8 15-222 partner): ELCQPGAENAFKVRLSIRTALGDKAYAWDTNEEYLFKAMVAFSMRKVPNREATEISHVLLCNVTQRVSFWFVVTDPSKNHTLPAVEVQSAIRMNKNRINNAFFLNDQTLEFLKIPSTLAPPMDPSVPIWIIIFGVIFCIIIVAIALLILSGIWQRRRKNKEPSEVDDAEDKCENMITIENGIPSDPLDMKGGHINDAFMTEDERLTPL
Experimental: The flasks were then incubated (humidified, 37° C. with 5% CO2) for 2 minutes. After incubation, 10 mL of pre-warmed cell culture media was added to each flask. The cell suspension was collected and centrifuged for 5 minutes at 200×g. The supernatant was aspirated and the pellet was resuspended in 5 mL pre-warmed cell culture media. The resuspended cells were counted using the Countess Cell Counting Chamber (Invitrogen) and the cell concentration of the suspension was readjusted to 1 million live cells/mL using pre-warmed cell culture media. […] Assay plates were then incubated (humidified, 37° C. with 5% CO2) for 18 hours. After incubation, the media was aspirated and the wells were washed 4 times with pre-warmed HBSS (Sigma-Aldrich, H8264-1L) using an Apricot S-Pipette S2 (Apricot Designs), such that 5 uL/well HBSS was remaining at the end of each wash. […] At this step, the final in-well DMSO concentration in the assay plate is 0.5%. All compounds were plated in a duplicate 8-point dilution series that consisted of 3-fold dilutions. The plates were incubated with compound (humidified, 37° C. with 5% CO2) for 1 hour. […] The plates were then incubated (humidified, 37° C. with 5% CO2) on a plate shaker at 200 rpm for 2 hours. After incubation, the plates were removed from the shaker and kept at room temperature for 15 minutes. Liquid scintillation analysis was performed using the MicroBeta2 Microplate Counter (Perkin Elmer). Activity (%) was derived by normalizing the average of positive control compound treated wells to 0% and the average of DMSO (negative control) wells to 100%. Collaborative Drug Discovery software was used for graphing data.

**Q.** Cc1cc(COc2cc3[nH]c(CNC(=O)[C@H](C)O)cc3cc2F)on1 [Compound 239, (S)-N-((5-fluoro-6-((3-methylisoxazol-5-yl)methoxy)-1H-indol-2-yl)methyl)-2-hydroxypropanamide] was tested. Which IC50 did it give?
**A.** 5880 nM

**Q.** CC1(C(=O)NCc2cc3cc(Cl)c(OCCC4CC4)cc3[nH]2)CC1 [Compound 635, N-((5-chloro-6-(2-cyclopropylethoxy)-1H-indol-2-yl)methyl)-1-methylcyclopropane-1-carboxamide] was tested. Which IC50 did it give?
**A.** 193 nM

**Q.** How did the IC50 turn out when O=C(NCCO)NCc1cc2cc(Cl)c(OCc3cscn3)cc2[nH]1 [Compound 619, 1-((5-chloro-6-(thiazol-4-ylmethoxy)-1H-indol-2-yl)methyl)-3-(2-hydroxyethyl)urea] was run?
**A.** > 8440 nM

**Q.** With COc1ccc(COc2cc3[nH]c(CNC(=O)C4(C)CC4)cc3cc2Cl)nn1 [Compound 337, N-((5-chloro-6-((6-methoxypyridazin-3-yl)methoxy)-1H-indol-2-yl)methyl)-1-methylcyclopropane-1-carboxamide] as the compound, how does the IC50 read?
**A.** 1190 nM

**Q.** For O=C(NCc1cc2cc(Cl)c(OCc3cscn3)cc2[nH]1)C1COC1 [Compound 261, N-((5-chloro-6-(thiazol-4-ylmethoxy)-1H-indol-2-yl)methyl)oxetane-3-carboxamide], which IC50 is on record?
**A.** 105 nM

**Q.** Which IC50 does the source give for CC(=O)NCc1cc2cc(F)c(OCc3cocn3)cc2[nH]1 [Compound 224, N-((5-fluoro-6-(oxazol-4-ylmethoxy)-1H-indol-2-yl)methyl)acetamide] here?
**A.** 545 nM

**Q.** CC1(C(=O)NCc2cc3cc(-c4cnco4)c(OCc4cscn4)cc3[nH]2)CC1 [Compound 661, 1-methyl-N-((5-(oxazol-5-yl)-6-(thiazol-4-ylmethoxy)-1H-indol-2-yl)methyl)cyclopropane-1-carboxamide] was tested. Which IC50 did it give?
**A.** 1000 nM

**Q.** With O=C(NCc1cc2ccc(OCc3ccon3)cc2[nH]1)N1CCC(F)C1 (centres unmarked) [Compound 200, 3-fluoro-N-((6-(isoxazol-3-ylmethoxy)-1H-indol-2-yl)methyl)pyrrolidine-1-carboxamide] as the compound, how does the IC50 read?
**A.** 752 nM

**Q.** Which IC50 does the source give for Cc1cc(COc2cc3[nH]c(CNC(=O)C45CCC(CC4)O5)cc3cc2Cl)on1 [Compound 296, N-((5-chloro-6-((3-methylisoxazol-5-yl)methoxy)-1H-indol-2-yl)methyl)-7-oxabicyclo[2.2.1]heptane-1-carboxamide] here?
**A.** 976 nM

**Q.** O=C(NCc1cc2cc(F)c(OCc3ccccn3)cc2[nH]1)C1CC1 [Compound 505, N-((5-fluoro-6-(pyridin-2-ylmethoxy)-1H-indol-2-yl)methyl)cyclopropanecarboxamide] was tested. Which IC50 did it give?
**A.** 203 nM

**Q.** How did the IC50 turn out when Cc1cc(COc2cc3[nH]c(CNC(=O)[C@H]4CCCN4)cc3cc2Cl)on1 [Compound 618, (R)—N-((5-chloro-6-((3-methylisoxazol-5-yl)methoxy)-1H-indol-2-yl)methyl)pyrrolidine-2-carboxamide] was run?
**A.** 7510 nM

**Q.** For Cc1cnc(COc2cc3[nH]c(CNC(=O)N4CCCC4)cc3cc2Cl)o1 [Compound 120, N-((5-chloro-6-((5-methyloxazol-2-yl)methoxy)-1H-indol-2-yl)methyl)pyrrolidine-1-carboxamide], which IC50 is on record?
**A.** 375 nM

**Q.** Which IC50 does the source give for CC1(C(=O)NCc2cc3cc(Cl)c(OCc4cccc(O)c4)cc3[nH]2)CC1 [Compound 198, N-((5-chloro-6-((3-hydroxybenzyl)oxy)-1H-indol-2-yl)methyl)-1-methylcyclopropane-1-carboxamide] here?
**A.** 2050 nM

**Q.** How did the IC50 turn out when CC1(C(=O)NCc2cc3cc(Cl)c(SCc4ccon4)cc3[nH]2)CC1 [Compound 197, N-((5-chloro-6-((isoxazol-3-ylmethyl)thio)-1H-indol-2-yl)methyl)-1-methylcyclo propanecarboxamide] was run?
**A.** 154 nM

**Q.** Which IC50 does the source give for CC(=O)NCc1cc2cc(Cl)c(OCCOC(F)(F)F)cc2[nH]1 [Compound 338, N-((5-chloro-6-(2-(trifluoromethoxy)ethoxy)-1H-indol-2-yl)methyl)acetamide] here?
**A.** 159 nM

**Q.** For CO[C@H]1C[C@@H](Oc2cc3[nH]c(CNC(C)=O)cc3cc2Cl)C1 [Compound 463, N-((5-chloro-6-((cis)-3-methoxycyclobutoxy)-1H-indol-2-yl)methyl)acetamide], which IC50 is on record?
**A.** > 8730 nM

**Q.** CC(=O)C(=O)NCc1cc2cc(Cl)c(OCc3cc(C)no3)cc2[nH]1 [Compound 582, N-((5-chloro-6-((3-methylisoxazol-5-yl)methoxy)-1H-indol-2-yl)methyl)-2-oxopropanamide] was tested. Which IC50 did it give?
**A.** 455 nM

**Q.** For CC1(C(=O)NCc2cc3ccc(OCc4cc(C(F)(F)F)on4)cc3[nH]2)CC1 [Compound 354, 1-methyl-N-((6-((5-(trifluoromethyl)isoxazol-3-yl)methoxy)-1H-indol-2-yl)methyl)cyclopropane-1-carboxamide], which IC50 is on record?
**A.** > 5280 nM

**Q.** With O=C(NCc1cc2cc(OC(F)(F)F)c(OCc3cocn3)cc2[nH]1)N1CCCC1 [Compound 417, N-((6-(oxazol-4-ylmethoxy)-5-(trifluoromethoxy)-1H-indol-2-yl)methyl)pyrrolidine-1-carboxamide] as the compound, how does the IC50 read?
**A.** 394 nM

**Q.** For COc1cc2cc(CNC(=O)C3(C)CC3)[nH]c2cc1CCn1nccn1 [Compound 591, N-((6-(2-(2H-1,2,3-triazol-2-yl)ethyl)-5-methoxy-1H-indol-2-yl)methyl)-1-methylcyclopropane-1-carboxamide], which IC50 is on record?
**A.** 184 nM

**Q.** For CC1(C(=O)NCc2cc3cc(Cl)c(OCc4ccccc4O)cc3[nH]2)CC1 [Compound 203, N-((5-chloro-6-((2-hydroxybenzyl)oxy)-1H-indol-2-yl)methyl)-1-methylcyclopropane-1-carboxamide], which IC50 is on record?
**A.** 1090 nM

**Q.** Cc1cc(COc2cc3[nH]c(CNC(=O)[C@@H]4CC(F)(F)CN4C)cc3cc2Cl)on1 [Compound 668, (S)-N-((5-chloro-6-((3-methylisoxazol-5-yl)methoxy)-1H-indol-2-yl)methyl)-4,4-difluoro-1-methylpyrrolidine-2-carboxamide] was tested. Which IC50 did it give?
**A.** 1150 nM

**Q.** For CC1CC(C(=O)NCc2cc3cc(Cl)c(OCc4cscn4)cc3[nH]2)C1 (centres unmarked) [Compound 561, N-((5-chloro-6-(thiazol-4-ylmethoxy)-1H-indol-2-yl)methyl)-3-methylcyclobutane-1-carboxamide], which IC50 is on record?
**A.** 570 nM

**Q.** O=C(NCc1cc2cc(Cl)c(OCc3ccon3)cc2[nH]1)N1CCOCC1 [Compound 84, N-((5-chloro-6-(isoxazol-3-ylmethoxy)-1H-indol-2-yl)methyl)morpholine-4-carboxamide] was tested. Which IC50 did it give?
**A.** 690 nM

**Q.** For Cc1cc(COc2cc3[nH]c(CNC(=O)C4(O)CC4)cc3cc2Cl)on1 [Compound 251, N-((5-chloro-6-((3-methylisoxazol-5-yl)methoxy)-1H-indol-2-yl)methyl)-1-hydroxycyclopropane-1-carboxamide], which IC50 is on record?
**A.** 194 nM

**Q.** Which IC50 does the source give for O=C(NCc1cc2cc(F)c(OCc3ccon3)cc2[nH]1)C1CC1 [Compound 140, N-((5-fluoro-6-(isoxazol-3-ylmethoxy)-1H-indol-2-yl)methyl)cyclopropanecarboxamide] here?
**A.** 148 nM

**Q.** For CO[C@H](C)C(=O)NCc1cc2cc(Cl)c(OCc3cc(C)no3)cc2[nH]1 [Compound 314, (R)-N-((5-chloro-6-((3-methylisoxazol-5-yl)methoxy)-1H-indol-2-yl)methyl)-2-methoxypropanamide], which IC50 is on record?
**A.** 375 nM

**Q.** For Cc1cc(COc2cc3[nH]c(CNC(=O)C4(C)CC4)cc3cc2C(F)F)no1 [Compound 647, N-((5-(difluoromethyl)-6-((5-methylisoxazol-3-yl)methoxy)-1H-indol-2-yl)methyl)-1-methylcyclopropane-1-carboxamide], which IC50 is on record?
**A.** 680 nM

**Q.** Which IC50 does the source give for Cc1cc(COc2cc3[nH]c(CNC(=O)C4CCN(C)C4=O)cc3cc2Cl)on1 (racemic) [Compound 574, (R)-N-((5-chloro-6-((3-methylisoxazol-5-yl)methoxy)-1H-indol-2-yl)methyl)-1-methyl-2-oxopyrrolidine-3-carboxamide and (S)-N-((5-chloro-6-((3-methylisoxazol-5-yl)methoxy)-1H-indol-2-yl)methyl)-1-methyl-2-oxopyrrolidine-3-carboxamide] here?
**A.** 3600 nM
